This experiment has as its target human KDR protein in HEK-293 cells (Homo sapiens (Human), UniProt P35968). The experiment in a line: KDR Cell Assay (phospho-KDR in HEK-293 cells expressing inducible KDR). It is filed as cell-based. To be noted: pKDR Cell HEK 10% FBS IC50, HEK-293 cells expressing inducible KDR, VEGF stimulated. The procedure, abridged: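 HEK-293 cells with inducible human KDR were treated with compound for 1 h in DMEM (0.25% DMSO final), then lysed. Phospho-KDR was quantified by Meso Scale immunoassay, expressed as percent of control, and IC50 taken where a 4-parameter logistic fit crossed 50 POC.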

pIC50: −log10 of the molar value.

Sequence of human KDR protein in HEK-293 cells (P35968 20-1356): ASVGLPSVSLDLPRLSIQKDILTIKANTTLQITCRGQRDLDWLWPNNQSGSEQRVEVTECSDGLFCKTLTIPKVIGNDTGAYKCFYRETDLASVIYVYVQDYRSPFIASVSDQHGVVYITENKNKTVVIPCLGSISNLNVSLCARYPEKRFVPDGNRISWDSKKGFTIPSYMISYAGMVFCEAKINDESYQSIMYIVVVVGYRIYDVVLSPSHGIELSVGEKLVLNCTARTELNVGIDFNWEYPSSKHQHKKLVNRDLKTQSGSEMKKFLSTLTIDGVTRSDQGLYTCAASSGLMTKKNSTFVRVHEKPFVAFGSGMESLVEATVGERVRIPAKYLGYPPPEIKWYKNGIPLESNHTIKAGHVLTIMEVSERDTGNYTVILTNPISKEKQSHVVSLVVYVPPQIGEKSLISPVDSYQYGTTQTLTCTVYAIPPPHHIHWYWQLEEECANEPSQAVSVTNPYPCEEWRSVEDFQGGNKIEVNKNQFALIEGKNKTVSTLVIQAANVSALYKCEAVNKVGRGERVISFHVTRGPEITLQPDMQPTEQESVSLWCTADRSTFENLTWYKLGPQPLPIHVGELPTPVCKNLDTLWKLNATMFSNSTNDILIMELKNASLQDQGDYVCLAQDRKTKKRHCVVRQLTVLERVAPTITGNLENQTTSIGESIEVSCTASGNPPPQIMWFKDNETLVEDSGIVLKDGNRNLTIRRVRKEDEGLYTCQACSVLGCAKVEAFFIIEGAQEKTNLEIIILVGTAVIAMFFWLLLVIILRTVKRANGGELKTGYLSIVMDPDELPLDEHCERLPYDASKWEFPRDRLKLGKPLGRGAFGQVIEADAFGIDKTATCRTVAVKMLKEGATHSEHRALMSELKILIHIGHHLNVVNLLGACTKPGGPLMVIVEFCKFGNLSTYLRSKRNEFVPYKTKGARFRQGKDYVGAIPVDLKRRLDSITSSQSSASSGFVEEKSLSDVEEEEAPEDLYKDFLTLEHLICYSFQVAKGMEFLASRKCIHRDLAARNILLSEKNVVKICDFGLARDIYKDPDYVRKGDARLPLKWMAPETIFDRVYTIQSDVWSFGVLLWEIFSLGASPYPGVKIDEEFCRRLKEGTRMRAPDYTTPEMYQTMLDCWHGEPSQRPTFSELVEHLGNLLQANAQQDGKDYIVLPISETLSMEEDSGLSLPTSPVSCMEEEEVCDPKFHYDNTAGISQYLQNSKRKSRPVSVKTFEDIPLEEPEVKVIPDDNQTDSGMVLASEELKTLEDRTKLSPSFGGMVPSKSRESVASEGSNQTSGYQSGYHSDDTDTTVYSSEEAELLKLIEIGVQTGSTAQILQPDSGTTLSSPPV

Consider `Cn1cc(-c2cc(-c3ccc(N4CCN(C(=O)[C@@H](CO)c5ccccc5)CC4)nc3)c3c(C#N)cnn3c2)cn1` [Example 373, (R)-4-(6-(4-(3-hydroxy-2-phenylpropanol)piperazin-1-yl)pyridin-3-yl)-6-(1-methyl-1H-pyrazol-4-yl)pyrazolo[1,5-a]pyridine-3-carbonitrile], for which the pIC50 was 5.74. `Cn1cc(-c2cc(-c3ccc(N4CCN(C(=O)N5CC[C@@H](c6ccccc6)C5)CC4)nc3)c3c(C#N)cnn3c2)cn1` [Example 375, (S)-6-(1-methyl-1H-pyrazol-4-yl)-4-(6-(4-(3-phenylpyrrolidine-1-carbonyl)piperazin-1-yl)pyridin-3-yl)pyrazolo[1,5-a]pyridine-3-carbonitrile] gave a pIC50 of 6.08. On to `COC1CCN(C(=O)N2CCN(c3ccc(-c4cc(-c5cnn(C)c5)cn5ncc(C#N)c45)cn3)CC2)CC1` [Example 376, 4-(6-(4-(4-methoxypiperidine-1-carbonyl)piperazin-1-yl)pyridin-3-yl)-6-(1-methyl-1H-pyrazol-4-yl)pyrazolo[1,5-a]pyridine-3-carbonitrile], for which the pIC50 was 5.74. For `CCCCN(C(=O)N1CCN(c2ccc(-c3cc(-c4cnn(C)c4)cn4ncc(C#N)c34)cn2)CC1)c1ccccc1` [Example 377, N-butyl-4-(5-(3-cyano-6-(1-methyl-1H-pyrazol-4-yl)pyrazolo[1,5-a]pyridin-4-yl)pyridine-2-yl)-N-phenylpiperazine-1-carboxamide] the value was 5.69; for `Cn1cc(-c2cc(-c3ccc(N4CCN(C(=O)N5CC[C@H](c6ccccc6)C5)CC4)nc3)c3c(C#N)cnn3c2)cn1` [Example 378, (R)-6-(1-methyl-1H-pyrazol-4-yl)-4-(6-(4-(3-phenylpyrrolidine-1-carbonyl)piperazin-1-yl)pyridin-3-yl)pyrazolo[1,5-a]pyridine-3-carbonitrile], 6.33; for `Cn1cc(-c2cc(-c3ccc(N4CCN(C(=O)N5CC6CC6C5)CC4)nc3)c3c(C#N)cnn3c2)cn1` (stereo not shown) [Example 380, 4-(6-(4-(3-azabicyclo[3.1.0]hexane-3-carbonyl)piperazin-1-yl)pyridin-3-yl)-6-(1-methyl-1H-pyrazol-4-yl)pyrazolo[1,5-a]pyridine-3-carbonitrile], 6.26. In turn, `Cn1cc(-c2cc(-c3ccc(N4CCN(C(=O)N5CCN6CCCC6C5)CC4)nc3)c3c(C#N)cnn3c2)cn1` (stereo not shown) [Example 381, 6-(1-methyl-1H-pyrazol-4-yl)-4-(6-(4-(octahydropyrrolo[1,2-a]pyrazine-2-carbonyl)piperazin-1-yl)pyridin-3-yl)pyrazolo[1,5-a]pyridine-3-carbonitrile] gave a negative logarithm of the IC50 (pIC50) of 6.09.

As to `COc1ccccc1N(C)C(=O)N1CCN(c2ccc(-c3cc(-c4cnn(C)c4)cn4ncc(C#N)c34)cn2)CC1` [Example 382, 4-(5-(3-cyano-6-(1-methyl-1H-pyrazol-4-yl)pyrazolo[1,5-a]pyridin-4-yl)pyridine-2-yl)-N-(2-methoxyphenyl)-N-methylpiperazine-1-carboxamide], the pIC50 was 5.77.

For the compound `COc1ccc(N(C)C(=O)N2CCN(c3ccc(-c4cc(-c5cnn(C)c5)cn5ncc(C#N)c45)cn3)CC2)cc1` [Example 383, 4-(5-(3-cyano-6-(1-methyl-1H-pyrazol-4-yl)pyrazolo[1,5-a]pyridine-4-yl)pyridin-2-yl)-N-(4-methoxyphenyl)-N-methylpiperazine-1-carboxamide], the pIC50 was 6.19.

For the compound `Cn1cc(-c2cc(-c3ccc(N4CCN(C(=O)N5CC6C(C5)C6(C)C)CC4)nc3)c3c(C#N)cnn3c2)cn1` (stereo not shown) [Example 384, 4-(6-(4-(6,6-dimethyl-3-azabicyclo[3.1.0]hexane-3-carbonyl)piperazin-1-yl)pyridin-3-yl)-6-(1-methyl-1H-pyrazol-4-yl)pyrazolo[1,5-a]pyridine-3-carbonitrile], the pIC50 is 5.98.

These data come from US10023570B2 (Array BioPharma, Inc., priority 2015, dated 2018).
